{"source": "patent US20070191334A1", "about": "“Tricyclic imidazopyridines” (ALTANA PHARMA AG, priority 2004, published 2007)", "data": [{"tested_on": "pentagastrin-stimulated acid secretion of the perfused rat stomach", "test": "Secretion-inhibiting action on the perfused rat stomach (pentagastrin-stimulated acid secretion, intraduodenal administration in vivo)", "details": "Table A, dose 1 μmol/kg i.d., anesthetized CD rat", "source_text": "Testing of the Secretion-Inhibiting Action on the Perfused Rat Stomach\nIn Table A which follows, the influence of the compounds of the formula 1 according to the invention on the pentagastrin-stimulated acid secretion of the perfused rat stomach after intraduodenal administration in vivo is shown.\nIn Table B which follows, the influence of the compounds of the formula 1-a according to the invention and of their optical antipodes of the formula 1-b on the pentagastrin-stimulated acid secretion of the perfused rat stomach after intraduodenal administration in vivo is shown.\nThe abdomen of anesthetized rats (CD rat, female, 200-250 g; 1.5 g/kg i.m. urethane) was opened after tracheotomy by a median upper abdominal incision and a PVC catheter was fixed transorally in the esophagus and another via the pylorus such that the ends of the tubes just projected into the gastric lumen. The catheter leading from the pylorus led outward into the right abdominal wall through a side opening.\nAfter thorough rinsing (about 50-100 ml), warm (37° C.) physiological NaCl solution was continuously passed through the stomach (0.5 ml/min, pH 6.8-6.9; Braun-Unita I). The pH (pH meter 632, glass electrode EA 147; φ=5 mm, Metrohm) and, by titration with a freshly prepared 0.01N NaOH solution to pH 7 (Dosimat 665 Metrohm), the secreted HCl were determined in the effluent in each case collected at an interval of 15 minutes.\nThe gastric secretion was stimulated by continuous infusion of […] (=1.65 ml/h) of i.v. pentagastrin (left femoral vein) about 30 min after the end of the operation (i.e. after determination of 2 preliminary fractions). The substances to be tested were administered intraduodenally in a 2.5 ml/kg liquid volume 60 min after the start of the continuous pentagastrin infusion. The body temperature of the animals was kept at a constant 37.8-38° C. by infrared irradiation and heat pads (automatic, stepless control by means of a rectal temperature sensor).", "units": {"Inhibition of acid secretion (%)": "%"}, "values": [{"smiles": "COCCNC(=O)c1c(C)nc2c3c(c(C(=O)N(C)C)cn12)CCC(c1ccccc1)O3", "note": "(centres unmarked) [Example 4, 2-Methyl-9-phenyl-7H-8,9-dihydro-pyrano[2,3-c]imidazo[1,2-a]pyridine-3,6-dicarboxylic acid 3-[(2-methoxyethyl)amide]6-dimethylamide]", "Inhibition of acid secretion (%)": ">40"}, {"smiles": "CC#CC(=O)c1c(C)nc2c3c(c(C(=O)N(C)C)cn12)CCC(c1ccccc1)O3", "note": "(centres unmarked) [Example 6, 2-Methyl-3-(1-oxo-2-butynyl)-9-phenyl-7H-8,9-dihydro-pyrano[2,3-c]imidazo[1,2-a]pyridine-6-carboxylic acid dimethylamide]", "Inhibition of acid secretion (%)": ">40"}, {"smiles": "CC(=O)c1c(C)nc2c3c(c(C(=O)N(C)C)cn12)CCC(c1ccccc1)O3", "note": "(centres unmarked) [Example 9, 3-Acetyl-2-methyl-9-phenyl-7H-8,9-dihydro-pyrano[2,3-c]imidazo-[1,2-a]pyridine-6-carboxylic acid dimethylamide]", "Inhibition of acid secretion (%)": ">40"}, {"smiles": "Cc1nc2c3c(c(C(=O)N4CCC4)cn2c1C)CCC(c1ccccc1)O3", "note": "(centres unmarked) [Example 11, (2,3-Dimethyl-9-phenyl-7H-8,9-dihydro-pyrano[2,3-c]-imidazo[1,2-a]pyridin-6-yl)-azetidin-1-yl methanone]", "Inhibition of acid secretion (%)": ">70"}, {"smiles": "Cc1nc2c3c(c(C(=O)NC4CC4)cn2c1C)CCC(c1ccccc1)O3", "note": "(centres unmarked) [Example 13, 2,3-Dimethyl-9-phenyl-7H-8,9-dihydro-pyrano[2,3-c]-imidazo[1,2-a]pyridine-6-carboxylic acid cyclopropylamide]", "Inhibition of acid secretion (%)": ">70"}]}]}
